SMILES strings stand for the structures. Values joined by “and” are separate entries in the source; they are usually repeats but may differ in a detail not shown here. Equal values may be shown once.

Here are results for 91 molecules from the COVID Moonshot data (paper PMC7615835).

This experiment deals with SARS-CoV-2 Main Protease (SARS-CoV-2) (UniProt P0DTD1).
For orientation: IC50 means the point on the concentration scale where inhibition reaches its midpoint. A lower IC50 goes with higher potency. Molecule `COC(=O)C(C)NC(=O)C(c1cccnc1)N(C(=O)c1cocn1)c1ccc(C(C)(C)C)cc1` (stereo unspecified) displayed a concentration for half-maximal inhibition (IC50) of 7.18 µM. Molecule `CCCOc1ccc(Nc2cc(Cl)cc(CC(=O)Nc3cncc4ccccc34)c2)cc1` had a concentration for half-maximal inhibition (IC50) of 2.92 µM. In the case of `CS(=O)(=O)Nc1ccc2c(NC(=O)Cc3cccc(Cl)c3)cncc2c1` it was 0.882 µM. `O=C1CC(c2ccc(N(C(=O)c3cocn3)C(C(=O)NCCc3cccc(F)c3)c3cccnc3)cc2)CC(=O)N1` (stereo unspecified) showed a half-inhibitory concentration (IC50) of 53.8 µM.

The molecule `O=C(CC1(C(=O)Nc2cncc3ccccc23)CCOc2ccc(Cl)cc21)N1CCCCC1c1nnc[nH]1` (stereo unspecified) returned an IC50 of 0.437 µM. Consider `N#CCN1Cc2ccc(Cl)cc2C(C(=O)Nc2cncc3ccccc23)C1` (stereo unspecified), for which the IC50 was 0.335 µM. For `CC1CN(CCO)CCN1C(=O)CC1(C(=O)Nc2cncc3ccccc23)CCOc2ccc(Cl)cc21` (stereo unspecified), the IC50 came to 14.5 µM. As for `CC(=O)Nc1ccc2c(NC(=O)Cc3cccc(Cl)c3)cncc2c1`, the figure is 0.392 µM; as for `COc1cccc(CC(=O)Nc2cncc3ccccc23)c1`, 30.5 µM.

With `N#CC1(CS(=O)(=O)N2Cc3ccc(Cl)cc3C3(CCN(c4cncc5ccccc45)C3=O)C2)CCC1` (stereo unspecified), the half-maximal inhibitory concentration (IC50) stood at 0.263 µM. In the case of `C=CC(=O)N1CCN(S(=O)(=O)c2ccccc2)CC1` it was > 99.5 µM; in that of `Nc1nn(C(=O)C2CCOc3ccc(Cl)cc32)c2cc(F)ccc12` (stereo unspecified), > 99.5 µM.

`Cn1ccc2cc(N(C(=O)c3cocn3)C(C(=O)NCCc3cccc(F)c3)c3cccnc3)ccc21` (stereo unspecified) yielded an IC50 of 23.8 µM.

For `O=C(NNc1cc(O)nc2ncccc12)c1ccnc2ccccc12`, the IC50 was > 99.5 µM. As for `COc1ccccc1OCCNC(=O)c1cc(=O)cc[nH]1`, the figure is > 99.5 µM; as for `CC1(CS(=O)(=O)N2Cc3ccc(Cl)cc3C3(CCN(c4cncc5ccccc45)C3=O)C2)CS(=O)(=O)C1` (stereo unspecified), 0.144 µM; as for `Cc1cccc(C2CN(C(=O)CCl)Cc3ccccc32)c1` (stereo unspecified), 2 µM. In the case of `CC(C)N(C)S(=O)(=O)N1Cc2ccc(Cl)cc2C(C(=O)Nc2cncc3ccccc23)C1` (stereo unspecified), the half-maximal inhibitory concentration (IC50) was found to be 0.126 µM.

In the case of `O=C(Cc1cncnc1)Nc1cc(F)cc(OC2CC(=O)N2)c1` (stereo unspecified), the IC50 was 24.6 µM and 25.3 µM. `O=C(Cc1cc(Cl)cc(Nc2ccc3ccccc3c2O)c1)Nc1cncc2ccccc12` came in with a half-maximal inhibitory concentration (IC50) of 4.1 µM. As for `COc1ccc2c(NC(=O)C3CN(S(=O)(=O)CC4(C#N)CC4)Cc4ccc(Cl)cc43)cncc2c1` (stereo unspecified), the figure is 0.342 µM; as for `CC(C)(C)c1ccc(N(C(=O)c2cocn2)C(C(=O)NCCc2cccc(F)c2)c2cncnc2)cc1` (stereo unspecified), 2.92 µM; as for `O=C(Cc1cccc(Cl)c1)NC1CS(=O)(=O)Cc2ccccc21` (stereo unspecified), > 99.5 µM. As for `C=CC(=O)N(c1ccc(C(C)(C)C)cc1)C(C(=O)NCc1ccc(F)cc1)c1cccnc1` (stereo unspecified), the figure is 23.3 µM. In turn, `O=C(NNc1nc2ccccc2[nH]1)c1cc(O)nc2ccccc12` had an IC50 of 25.8 µM.

`O=C(Nc1cncc2ccccc12)C1CN(S(=O)(=O)N2CCCC2CO)Cc2ccc(Cl)cc21` (stereo unspecified) registered an IC50 of 1.14 µM. As for `COc1ccc(NC(=O)[C@@H]2CN(C(=O)CCl)CCN2S(=O)(=O)c2ccsc2)cc1` (stereo in doubt), the figure is 0.45 µM.

For `O=C(Cc1cc(Cl)cc(Nc2ccccc2)c1)Nc1cncc2ccccc12`, the IC50 was > 9.95 µM. In the case of `O=C(Cc1cc(Cl)cc(Nc2ncnc3c2ncn3CCO)c1)Nc1cncc2ccccc12` it was 1.82 µM. As for `CN(Cc1ccccc1Br)c1cc(Cl)cc(CC(=O)Nc2cncc3ccccc23)c1`, the figure is 2.11 µM; as for `CC(C)(C)c1ccc(N(C(=O)c2ocnc2C(F)(F)F)C(C(=O)NCCc2cccc(F)c2)c2cccnc2)cc1` (stereo unspecified), > 99.5 µM; as for `CC(C)(C)c1cc(N(C(=O)c2cocn2)C(C(=O)NCCc2cccc(F)c2)c2cccnc2)no1` (stereo unspecified), 51.2 µM. As for `Cc1ccc(N(Cc2cscn2)C(=O)Cc2cncc3ccccc23)nc1`, the figure is > 99.5 µM. As for `CC(C)(C(N)=O)c1ccc(N(Cc2ccsc2)C(=O)Cn2nnc3ccccc32)cc1`, the IC50 worked out at 3.17 µM. As for `O=C(c1cc(=O)[nH]c2ccccc12)N1CCN(c2ccccc2)CC1`, the figure is 27.5 µM. As for `COc1ccc2n[nH]c(NC(=O)Cc3cccc(Cl)c3)c2c1`, the figure is > 99.5 µM; as for `O=C(Cc1cc(Cl)cc(Nc2ccncc2Br)c1)Nc1cncc2ccccc12`, 2.18 µM. As for `Cc1cn2ccc(C(=O)Nc3nc(-c4cnn(C)c4)cs3)cc2n1`, the figure is > 99.5 µM; as for `O=C(Nc1cncc2ccccc12)C1COc2c(Cl)cccc21` (stereo unspecified), 4.76 µM. `N#Cc1cccc(NC(=O)[C@@H]2CN(C(=O)CCl)CCN2S(=O)(=O)c2ccsc2)c1` (stereo in doubt): the half-maximal inhibitory concentration (IC50) was found to be 0.416 µM. In the case of `O=C(Cc1cccc(Cl)c1)Nc1n[nH]c2ccccc12` it was > 99.5 µM; in that of `N#Cc1ccccc1NC(=O)[C@@H](c1ccccc1)N1Cc2ccccc2C1=O` (stereo in doubt), > 99.5 µM; in that of `C[C@H]1C[C@@H](C(=O)Nc2cncc3ccccc23)c2cc(Cl)ccc2O1` (stereo in doubt), 20.1 µM. In the case of `O=c1[nH]c2ccc(NC(=S)Nc3ccccc3Cl)cc2[nH]1` it was > 99.5 µM; in that of `O=C(Cc1cccc(Cl)c1)Nc1n[nH]c2ccncc12`, > 99.5 µM. In the case of `O=C(NCCc1cccc(F)c1)C(c1cccnc1)N(C(=O)c1cocn1)C1COc2cc(F)ccc21` (stereo unspecified) it was > 99.5 µM; in that of `CCOC(=O)c1nc(S(C)(=O)=O)ncc1Cl`, 1.6 µM. For the molecule `CCNC(=O)CN1CC(C(=O)Nc2cncc3ccccc23)c2cc(Cl)ccc2C1=O` (stereo unspecified), the IC50 is 0.0628 µM and 0.105 µM and 0.143 µM.

As to `COc1ccccc1C(=O)N(c1ccc(C(C)(C)C)cc1)C(C(=O)NCCc1cccc(F)c1)c1cccnc1` (stereo unspecified), the IC50 is > 99.5 µM. In the case of `CC(C)(C)c1ccc(N(C(=O)c2cnc[nH]2)C(C(=O)NCCc2cccc(F)c2)c2cc(=O)[nH]c3ccccc23)cc1` (stereo unspecified), the half-maximal inhibitory concentration (IC50) turned out to be 1.31 µM.

`COC(=O)/C=C/C(=O)N(C(=O)[C@@H]1CCOc2ccc(Cl)cc21)c1cncc2ccccc12` (stereo in doubt): the IC50 turned out to be 0.5 µM. `O=C(Cc1ccc(C(F)(F)F)cc1)Nc1cncc2ccccc12`: the IC50 was 24.8 µM. As for `Cc1ccncc1OCCNC(=O)C(C)(C)c1cccc(Cl)c1`, the figure is > 99.5 µM. In the case of `O=C(Cc1cc(Cl)cc(Nc2ccc3cc(Br)ccc3c2)c1)Nc1cncc2ccccc12` it was 2.1 µM; in that of `Cc1cc(NC(=O)Cc2cncnc2)cc(OC2CC(=O)N2)c1` (stereo unspecified), 34.6 µM and 34 µM.

As for `O=C(Cc1cc(Cl)cc(N2CCCCC2)c1)Nc1cncc2ccccc12`, the IC50 was > 9.95 µM.

Turning to `CCNC(=O)c1ccc(N(C(=O)c2cocn2)C(C(=O)NCCc2cccc(F)c2)c2cccnc2)cc1` (stereo unspecified), the 50% inhibitory concentration (IC50) is > 99.5 µM.

Turning to `COc1cc(OC)nc(C#N)n1`, the half-maximal inhibitory concentration (IC50) was > 99.5 µM.

Regarding `O=C(Nc1nn2cnnc2s1)c1csc(-c2ccccc2)n1`, the IC50 was > 99.5 µM. In the case of `N#Cc1ncc(Br)cn1` it was > 99.5 µM; in that of `Cc1sc2ncnc(N3CCc4c(ncn4C4CC4)C3)c2c1C`, > 99.5 µM; in that of `O=C(Cc1cc(Cl)cc(NCCc2ccc(Cl)cc2Cl)c1)Nc1cncc2ccccc12`, 3.91 µM.

For `O=c1oc(Nc2ccccc2)nc2ccccc12`, the IC50 is 1.57 µM. In the case of `Cc1ccncc1NC(=O)Cc1cc(Cl)cc(OC2COC2)c1` it was 16 µM; in that of `CCS(=O)(=O)N1Cc2ccc(Cl)cc2C(C(=O)Nc2cncc3ccccc23)C1` (stereo unspecified), 0.242 µM; in that of `O=C(CCl)N1CC2CC1CN2Cc1cccc(Cl)c1` (stereo unspecified), 2.17 µM. In the case of `O=C(Nc1cncc2cc(Cl)ccc12)C12CC(C1)Oc1ccc(Cl)cc12`, the half-inhibitory concentration (IC50) was > 99.5 µM. As for `CC(C)C[C@H]1CN(C(=O)CCl)CCN1Cc1cccc(Cl)c1` (stereo in doubt), the figure is 0.759 µM and 0.641 µM; as for `CNC(=O)c1ccc2cncc(NC(=O)C3CN(S(=O)(=O)CC4(C#N)CC4)Cc4ccc(Cl)cc43)c2c1` (stereo unspecified), 0.116 µM.

As to `N#CC1(CS(=O)(=O)N2Cc3ccc(Cl)cc3C3(CCN(c4cncc5ccc(OCCN6CCCC6)cc45)C3=O)C2)CC1` (stereo unspecified), the IC50 stood at 0.225 µM. As for `CC(C)(C)c1ccc(N(C(=O)c2nnc(O)cc2O)C(C(=O)NCCc2cccc(F)c2)c2cccnc2)cc1` (stereo unspecified), the figure is > 99.5 µM; as for `Cc1noc2ncc(CNc3ccc(-c4nnnn4C)cc3)cc12`, > 99.5 µM; as for `CC(C)(C)c1ccc(N(C(=O)c2ccco2)C(C(=O)NCCc2cccc(F)c2)c2cnc3ccccn23)cc1` (stereo unspecified), 37.5 µM. Turning to `COc1ccccc1OCCNC(=O)C1CC(=O)Nc2ccccc21` (stereo unspecified), the concentration for half-maximal inhibition (IC50) is > 99.5 µM. For `CN1Cc2c(Cl)cc(Cl)cc2[C@H](c2cccc(S(=O)(=O)NCCOCCOCCNC(=O)NCCCCNC(=O)NCCOCCOCCNS(=O)(=O)c3cccc([C@@H]4CN(C)Cc5c(Cl)cc(Cl)cc54)c3)c2)C1` (stereo in doubt), the half-inhibitory concentration (IC50) is > 99 µM.

As for `Cc1cc2c(cc1C)C(C(=O)N1CCCCC1c1cn[nH]c1)CO2` (stereo unspecified), the IC50 is > 99.5 µM. As for `CC(CCc1ccco1)NC(=O)Nc1cn(C)c(=O)c2ccccc12` (stereo unspecified), the figure is 44.5 µM; as for `O=C1CCC(c2ccc(N(C(=O)c3cocn3)C(C(=O)NCCc3cccc(F)c3)c3cccnc3)cc2)N1` (stereo unspecified), > 99.5 µM. For `O=C(Cc1cccc(Cl)c1)Nc1cnccc1C(F)(F)F`, the concentration for half-maximal inhibition (IC50) was 18.2 µM and > 9.95 µM. As for `CC(CNc1ccc2nnnn2n1)c1nc2ccccc2s1` (stereo unspecified), the figure is > 99.5 µM; as for `O=C(Cc1cc(Cl)cc(Nc2ccccc2-c2ccccc2)c1)Nc1cncc2ccccc12`, 1.86 µM.

For the molecule `COc1ccccc1N1CCN(C(=O)c2cc(=O)[nH]c3ccccc23)CC1`, the half-maximal inhibitory concentration (IC50) is 32.8 µM. For `O=C(Nc1cncc2ccccc12)[C@@H]1COc2ccc(Cl)cc21` (stereo in doubt), the half-maximal inhibitory concentration (IC50) was 0.529 µM and 0.67 µM and 0.483 µM. In the case of `CC(NC(=O)c1c(Cl)nc2ccccn12)c1nnc2ccccn12` (stereo unspecified), the IC50 is > 99.5 µM. As for `O=CC(=O)N1CCN(Cc2cccc(Cl)c2)CC1`, the figure is 56.6 µM and 49.6 µM; as for `CC(Cc1nc2ccccc2s1)Nc1ccc2nnnn2n1` (stereo unspecified), > 99.5 µM.

In turn, `O=C(Nc1cncc2ccccc12)C1COCc2c(Cl)cccc21` (stereo unspecified) came in with an IC50 of 7.02 µM.

Turning to `O=C(Cc1cc(Cl)cc(Nc2cccc(Br)n2)c1)Nc1cncc2ccccc12`, the IC50 came out at 1.92 µM. In the case of `Cc1ccncc1NC(=O)Cc1cccc(C#N)c1`, the IC50 is 63.7 µM and 59 µM.

For `O=C(Cc1cc(Cl)cc(NCc2cc(Cl)cc(Cl)c2)c1)Nc1cncc2ccccc12`, the half-inhibitory concentration (IC50) came out at 1.72 µM. In the case of `O=C(Nc1ccc2nncn2c1)c1ccc2scnc2c1` it was > 99.5 µM.
